Experimental data: ChEMBL document CHEMBL5385847, “Design, synthesis and biological evaluation of a new class of 7H-pyrrolo[2,3-d]pyrimidine derivatives as Mps1 inhibitors for the treatment of breast cancer” (Eur J Med Chem, 2023)

Tested on: L02
Assay: Antiproliferative activity against human L02 cells assessed as inhibition of cell viability by MTT assay
Type: toxicity, cell-based

Question: `CN1CCN(c2ccc(Nc3nc(-n4nc(N)c5ccccc54)c4cc[nH]c4n3)cc2)CC1` was tested. Which Activity did it give?
Answer: Non-Toxic
